Organism: Rattus norvegicus
Assay: Open TG-GATES - Regimen: Single
Assay type: toxicity, organism-based, Sprague-Dawley
Parameters: regimen Single, gender Male, age 6 weeks
Settings: in vivo, po, 30 mg/kg, route gavage, dose level High; for APTT / Bas / Eos / Fbg / Hb / Ht / Lym / MCH / MCHC / MCV / Mono / Neu / PT / Plat / RBC / Ret / WBC: tissue Blood; for KIDNEY_L / KIDNEY_R / KIDNEY_TOTAL: tissue Kidney; for LIVER: tissue Liver; for A/G / ALP / ALT / AST / BUN / CRE / Ca / Cl / DBIL / GLC / IP / K / LDH / Na / PL / RALB / TBIL / TC / TG / TP / gamma-GTP: tissue Plasma

Nc1c2c(nc3ccccc13)CCCC2 [TACRINE]
TERMINAL_BW (3 h): 205 g | APTT (3 h): 21.4 s | Bas (3 h): 0% | Eos (3 h): 0.6% | Fbg (3 h): 313.8 mg/dL | Hb (3 h): 13.4 g/dL | Ht (3 h): 39.4% | Lym (3 h): 71% | MCH (3 h): 21.4 pg | MCHC (3 h): 34.1% | MCV (3 h): 62.7 fL | Mono (3 h): 2.6% | Neu (3 h): 25% | PT (3 h): 16.4 s | Plat (3 h): 124.7 x10_4/uL | RBC (3 h): 628.2 x10_4/ul | Ret (3 h): 8.7% | WBC (3 h): 55.6 x10_2/uL | KIDNEY_L (3 h): 0.9 g | KIDNEY_R (3 h): 0.9 g | KIDNEY_TOTAL (3 h): 1.9 g | LIVER (3 h): 9 g | A/G (3 h): 1.3 | ALP (3 h): 1523.2 IU/L | ALT (3 h): 49.8 IU/L | AST (3 h): 152.2 IU/L | BUN (3 h): 12.6 mg/dL | CRE (3 h): 0.2 mg/dL | Ca (3 h): 10.4 mg/dL | Cl (3 h): 103.8 meq/L | DBIL (3 h): 0 mg/dL | GLC (3 h): 269.6 mg/dL | IP (3 h): 9.9 mg/dL | K (3 h): 3.6 meq/L | LDH (3 h): 369.4 IU/L | Na (3 h): 139.2 meq/L | PL (3 h): 142.6 mg/dL | RALB (3 h): 3.2 g/dL | TBIL (3 h): 0.022 mg/dL | TC (3 h): 78 mg/dL | TG (3 h): 69.8 mg/dL | TP (3 h): 5.7 g/dL | gamma-GTP (3 h): 1.2 IU/L | TERMINAL_BW (6 h): 199.4 g | APTT (6 h): 20.8 s | Bas (6 h): 0% | Eos (6 h): 0.4% | Fbg (6 h): 327.2 mg/dL | Hb (6 h): 14 g/dL | Ht (6 h): 40.4% | Lym (6 h): 67% | MCH (6 h): 21.1 pg | MCHC (6 h): 34.6% | MCV (6 h): 61 fL | Mono (6 h): 3% | Neu (6 h): 29% | PT (6 h): 15.7 s | Plat (6 h): 124.5 x10_4/uL | RBC (6 h): 662.6 x10_4/ul | Ret (6 h): 7.7% | WBC (6 h): 64.5 x10_2/uL | KIDNEY_L (6 h): 0.9 g | KIDNEY_R (6 h): 0.9 g | KIDNEY_TOTAL (6 h): 1.8 g | LIVER (6 h): 8.9 g | A/G (6 h): 1.2 | ALP (6 h): 1476.6 IU/L | ALT (6 h): 51.8 IU/L | AST (6 h): 199.8 IU/L | BUN (6 h): 13.4 mg/dL | CRE (6 h): 0.2 mg/dL | Ca (6 h): 10.6 mg/dL | Cl (6 h): 106.4 meq/L | DBIL (6 h): 0 mg/dL | GLC (6 h): 221.4 mg/dL | IP (6 h): 9.3 mg/dL | K (6 h): 3.9 meq/L | LDH (6 h): 347.2 IU/L | Na (6 h): 142 meq/L | PL (6 h): 146.4 mg/dL | RALB (6 h): 3.3 g/dL | TBIL (6 h): 0.02 mg/dL | TC (6 h): 81.6 mg/dL | TG (6 h): 45.4 mg/dL | TP (6 h): 6 g/dL | gamma-GTP (6 h): 1 IU/L | TERMINAL_BW (9 h): 202.2 g | APTT (9 h): 21 s | Bas (9 h): 0% | Eos (9 h): 0.4% | Fbg (9 h): 339.6 mg/dL | Hb (9 h): 13.4 g/dL | Ht (9 h): 38.9% | Lym (9 h): 53% | MCH (9 h): 21 pg | MCHC (9 h): 34.3% | MCV (9 h): 61.3 fL | Mono (9 h): 3% | Neu (9 h): 43% | PT (9 h): 15.6 s | Plat (9 h): 128.9 x10_4/uL | RBC (9 h): 634.8 x10_4/ul | Ret (9 h): 8.3% | WBC (9 h): 78.6 x10_2/uL | KIDNEY_L (9 h): 0.9 g | KIDNEY_R (9 h): 0.9 g | KIDNEY_TOTAL (9 h): 1.8 g | LIVER (9 h): 8.4 g | A/G (9 h): 1.3 | ALP (9 h): 1511.6 IU/L | ALT (9 h): 64.4 IU/L | AST (9 h): 283 IU/L | BUN (9 h): 11.6 mg/dL | CRE (9 h): 0.2 mg/dL | Ca (9 h): 10.7 mg/dL | Cl (9 h): 106.2 meq/L | DBIL (9 h): 0.004 mg/dL | GLC (9 h): 222.6 mg/dL | IP (9 h): 9 mg/dL | K (9 h): 3.8 meq/L | LDH (9 h): 264.6 IU/L | Na (9 h): 141.4 meq/L | PL (9 h): 160.2 mg/dL | RALB (9 h): 3.3 g/dL | TBIL (9 h): 0.012 mg/dL | TC (9 h): 84 mg/dL | TG (9 h): 42.2 mg/dL | TP (9 h): 5.9 g/dL | gamma-GTP (9 h): 1 IU/L | TERMINAL_BW (24 h): 192.1 g | APTT (24 h): 20.8 s | Bas (24 h): 0% | Eos (24 h): 1% | Fbg (24 h): 351.6 mg/dL | Hb (24 h): 14.3 g/dL | Ht (24 h): 40.9% | Lym (24 h): 84.4% | MCH (24 h): 21.3 pg | MCHC (24 h): 34.8% | MCV (24 h): 61.2 fL | Mono (24 h): 2.2% | Neu (24 h): 12.4% | PT (24 h): 16.1 s | Plat (24 h): 130.3 x10_4/uL | RBC (24 h): 668.8 x10_4/ul | Ret (24 h): 6.7% | WBC (24 h): 68.9 x10_2/uL | KIDNEY_L (24 h): 0.9 g | KIDNEY_R (24 h): 0.9 g | KIDNEY_TOTAL (24 h): 1.8 g | LIVER (24 h): 7.7 g | A/G (24 h): 1.3 | ALP (24 h): 1513.8 IU/L | ALT (24 h): 44.4 IU/L | AST (24 h): 121.6 IU/L | BUN (24 h): 15 mg/dL | CRE (24 h): 0.2 mg/dL | Ca (24 h): 10.8 mg/dL | Cl (24 h): 107.8 meq/L | DBIL (24 h): 0.008 mg/dL | GLC (24 h): 187.6 mg/dL | IP (24 h): 8.8 mg/dL | K (24 h): 4.2 meq/L | LDH (24 h): 259.6 IU/L | Na (24 h): 142.2 meq/L | PL (24 h): 140.4 mg/dL | RALB (24 h): 3.2 g/dL | TBIL (24 h): 0.042 mg/dL | TC (24 h): 88.6 mg/dL | TG (24 h): 31.6 mg/dL | TP (24 h): 5.8 g/dL | gamma-GTP (24 h): 1 IU/L
